Data as given in patent publication US12281149B2, “Modulators of G-protein coupled receptors” (priority 2021, dated 2025).
Where two headings read alike, the source gives them in different places. *1 amine or outer side, *2 acyl side, *3 side chain or, on linkers, in order; H or OH if unused. Where a SMILES comes first, the peptide text is derived from it. Side-chain parts run from the residue outwards. [ ]: non-standard residue; d: D form. The star is where a group is joined. C20 diacid = O=C(O)CCCCCCCCCCCCCCCCCCC(=O)*; γGlu = O=C(O)[C@H](CCC(=O)[*:2])N[*:1]; X27 = O=C1CC(C(=O)*)(c2ccccc2)CN1; X60 = O=C(C1(c2cccnc2)CCCC1)*; X83 = Cc1ccn(C(C)(C)C(=O)*)n1; AEEA = NCCOCCOCC(=O)O; Aib = CC(C)(N)C(=O)O; CO = O=C([*:1])[*:2]; X67 = Cc1cccc(N*)c1; GABA = NCCCC(=O)O; βAla = NCCC(=O)O

Legend:
GLP-1 receptor = GLP-1 receptor (Homo sapiens, UniProt P43220); assay: HitHunter cAMP assay, GLP-1 receptor; type: cell-based; details: read-out: Emax GLP-1R
Chain of GLP-1 receptor (P43220 24-463): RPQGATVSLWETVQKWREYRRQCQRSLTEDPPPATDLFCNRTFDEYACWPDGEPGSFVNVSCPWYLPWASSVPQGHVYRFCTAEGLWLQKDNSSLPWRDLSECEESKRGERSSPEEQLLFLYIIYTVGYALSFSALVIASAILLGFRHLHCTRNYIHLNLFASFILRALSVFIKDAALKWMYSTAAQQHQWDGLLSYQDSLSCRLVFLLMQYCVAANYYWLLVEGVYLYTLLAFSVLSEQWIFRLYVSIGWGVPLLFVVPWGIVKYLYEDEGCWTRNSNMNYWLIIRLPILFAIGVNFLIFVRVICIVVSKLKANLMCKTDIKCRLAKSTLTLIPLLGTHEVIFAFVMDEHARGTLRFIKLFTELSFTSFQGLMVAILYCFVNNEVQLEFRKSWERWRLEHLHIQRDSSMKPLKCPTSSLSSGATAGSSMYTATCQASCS
Description: CAMP accumulation was measured in Chinese hamster ovary (CHO) cells stably expressing the human GLP-1 receptor or GIP receptor using the HitHunter CAMP Assay for Small Molecules Kit (Eurofins). Briefly, cells were grown in Ham's F12 Nutrient Mix with 10% FBS and lifted with Cell dissociation buffer, Enzyme free, PBS based (ThermoFisher). Cells were pelleted and resuspended in Hank's buffered saline solution with 10 mM Hepes and 625 μM 3-isobutyl-1-methylxanthine. The antibody reagent was then added to cells at a 1:2 ratio and 5 μL of mixture was seeded in 384-well small volume white assay plates, at 10,000 cells/well. Cells were then treated with 50 nl compound in DMSO using an ECHO 550 acoustic dispenser (Labcyte) in a 20-point dose response format in triplicate for 30 min. Cells were the lysed and detection reagents added according to the manufacturer's protocol. After overnight incubation, luminescence was measured using a Perkin Elmer Envision plate reader. Raw data was normalized to the maximum signal from GLP-1 or GIP (high) and DMSO (low). Dose response curves were analyzed using GraphPad Prism 9.0.

GIP receptor = molecular target: T1, GIP receptor (Homo sapiens, UniProt P48546); assay: HitHunter cAMP assay, GIP receptor; type: cell-based; details: read-out: Emax GIP-1R
T1 sequence (P48546 22-466): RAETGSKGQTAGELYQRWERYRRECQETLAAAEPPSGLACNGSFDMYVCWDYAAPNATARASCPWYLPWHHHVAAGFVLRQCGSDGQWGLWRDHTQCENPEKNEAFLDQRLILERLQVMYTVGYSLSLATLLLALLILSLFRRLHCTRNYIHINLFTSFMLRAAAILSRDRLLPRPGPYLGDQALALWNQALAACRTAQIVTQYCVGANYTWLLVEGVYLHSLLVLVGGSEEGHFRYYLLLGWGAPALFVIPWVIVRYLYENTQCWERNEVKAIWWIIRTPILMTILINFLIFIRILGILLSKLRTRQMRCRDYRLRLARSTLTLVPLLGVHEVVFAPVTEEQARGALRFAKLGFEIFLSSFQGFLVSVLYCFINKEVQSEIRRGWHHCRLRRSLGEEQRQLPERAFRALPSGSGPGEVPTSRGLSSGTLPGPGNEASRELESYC

[1] = CHO cells, cAMP, normalized to maximum signal from GLP-1 (high) and DMSO (low)
[2] = CHO cells, cAMP, normalized to maximum signal from GIP (high) and DMSO (low)

| Compound | Emax (GLP-1 receptor; CHO) [%] | Emax (GIP receptor; CHO) [%] | Emax (GLP-1 receptor; [1]) [%] | Emax (GIP receptor; [2]) [%] |
| --- | --- | --- | --- | --- |
| CC[C@H](C)[C@H](NC(=O)[C@H](CC(C)C)NC(=O)[C@H](Cc1c[nH]c2ccccc12)NC(=O)[C@H](CCC(N)=O)NC(=O)[C@@H](NC(=O)[C@H](Cc1ccccc1)NC(=O)[C@H](C)NC(=O)[C@H](CCCCNC(=O)COCCOCCNC(=O)COCCOCCNC(=O)CC[C@H](NC(=O)CCCCCCCCCCCCCCCCCCC(=O)O)C(=O)O)NC(=O)[C@H](CCC(N)=O)NC(=O)[C@H](C)NC(=O)[C@@H](NC(=O)[C@H](CCCCN)NC(=O)[C@H](CC(=O)O)NC(=O)[C@H](CC(C)C)NC(=O)C(C)(C)NC(=O)[C@@H](NC(=O)[C@H](CO)NC(=O)[C@H](Cc1ccc(O)cc1)NC(=O)[C@H](CC(=O)O)NC(=O)[C@H](CO)NC(=O)[C@@H](NC(=O)[C@H](Cc1ccccc1)NC(=O)[C@@H](NC(=O)CNC(=O)[C@H](CCC(=O)O)NC(=O)CCCNC(=O)CNC(=O)Nc1cccc(C)c1)[C@@H](C)O)[C@@H](C)O)[C@@H](C)CC)[C@@H](C)CC)C(C)C)C(=O)N[C@@H](C)C(=O)NCC(=O)NCC(=O)N1CCC[C@H]1C(=O)N[C@@H](CO)C(=O)N[C@@H](CO)C(=O)NCC(=O)N[C@@H](C)C(=O)N1CCC[C@H]1C(=O)N1CCC[C@H]1C(=O)N1CCC[C@H]1C(=O)N[C@@H](CO)C(N)=O [Compound 258] ({X67-CO}-G[GABA]EGTFTSDYSI[Aib]LDKIAQK([AEEA-AEEA-γGlu-C20 diacid])AFVQWLIAGGPSSGAPPPS-NH2; C-terminus assumed) | 100 | 101 |  |  |
| CC[C@H](C)[C@H](NC(=O)[C@H](CC(C)C)NC(=O)[C@H](Cc1c[nH]c2ccccc12)NC(=O)[C@H](CCC(N)=O)NC(=O)[C@@H](NC(=O)[C@H](Cc1ccccc1)NC(=O)[C@H](C)NC(=O)[C@H](CCCCNC(=O)COCCOCCNC(=O)COCCOCCNC(=O)CC[C@H](NC(=O)CCCCCCCCCCCCCCCCCCC(=O)O)C(=O)O)NC(=O)[C@H](CCC(N)=O)NC(=O)[C@H](C)NC(=O)[C@@H](NC(=O)[C@H](CCCCN)NC(=O)[C@H](CC(=O)O)NC(=O)[C@H](CC(C)C)NC(=O)C(C)(C)NC(=O)[C@@H](NC(=O)[C@H](CO)NC(=O)[C@H](Cc1ccc(O)cc1)NC(=O)[C@H](CC(=O)O)NC(=O)[C@H](CO)NC(=O)[C@@H](NC(=O)[C@H](Cc1ccccc1)NC(=O)[C@@H](NC(=O)CNC(=O)[C@H](CCC(=O)O)NC(=O)CCCNC(=O)C(C)(C)n1ccc(C)n1)[C@@H](C)O)[C@@H](C)O)[C@@H](C)CC)[C@@H](C)CC)C(C)C)C(=O)N[C@@H](C)C(=O)NCC(=O)NCC(=O)N1CCC[C@H]1C(=O)N[C@@H](CO)C(=O)N[C@@H](CO)C(=O)NCC(=O)N[C@@H](C)C(=O)N1CCC[C@H]1C(=O)N1CCC[C@H]1C(=O)N1CCC[C@H]1C(=O)N[C@@H](CO)C(N)=O [Compound 252] ({X83-GABA}-EGTFTSDYSI[Aib]LDKIAQK([AEEA-AEEA-γGlu-C20 diacid])AFVQWLIAGGPSSGAPPPS-NH2; C-terminus assumed) |  |  | 90 | 100 |
| CC[C@H](C)[C@H](NC(=O)[C@H](CC(C)C)NC(=O)[C@H](Cc1c[nH]c2ccccc12)NC(=O)[C@H](CCC(N)=O)NC(=O)[C@@H](NC(=O)[C@H](Cc1ccccc1)NC(=O)[C@H](C)NC(=O)[C@H](CCCCNC(=O)COCCOCCNC(=O)COCCOCCNC(=O)CC[C@H](NC(=O)CCCCCCCCCCCCCCCCCCC(=O)O)C(=O)O)NC(=O)[C@H](CCC(N)=O)NC(=O)[C@H](C)NC(=O)[C@@H](NC(=O)[C@H](CCCCN)NC(=O)[C@H](CC(=O)O)NC(=O)[C@H](CC(C)C)NC(=O)C(C)(C)NC(=O)[C@@H](NC(=O)[C@H](CO)NC(=O)[C@H](Cc1ccc(O)cc1)NC(=O)[C@H](CC(=O)O)NC(=O)[C@H](CO)NC(=O)[C@@H](NC(=O)[C@H](Cc1ccccc1)NC(=O)[C@@H](NC(=O)CNC(=O)[C@H](CCC(=O)O)NC(=O)CCNC(=O)C1(c2cccnc2)CCCC1)[C@@H](C)O)[C@@H](C)O)[C@@H](C)CC)[C@@H](C)CC)C(C)C)C(=O)N[C@@H](C)C(=O)NCC(=O)NCC(=O)N1CCC[C@H]1C(=O)N[C@@H](CO)C(=O)N[C@@H](CO)C(=O)NCC(=O)N[C@@H](C)C(=O)N1CCC[C@H]1C(=O)N1CCC[C@H]1C(=O)N1CCC[C@H]1C(=O)N[C@@H](CO)C(N)=O [Compound 256] ({X60-βAla}-EGTFTSDYSI[Aib]LDKIAQK([AEEA-AEEA-γGlu-C20 diacid])AFVQWLIAGGPSSGAPPPS-NH2; C-terminus assumed) |  |  | 98 | 104 |
| CC[C@H](C)[C@H](NC(=O)[C@H](CC(C)C)NC(=O)[C@H](Cc1c[nH]c2ccccc12)NC(=O)[C@H](CCC(N)=O)NC(=O)[C@@H](NC(=O)[C@H](Cc1ccccc1)NC(=O)[C@H](C)NC(=O)[C@H](CCCCNC(=O)COCCOCCNC(=O)COCCOCCNC(=O)CC[C@H](NC(=O)CCCCCCCCCCCCCCCCCCC(=O)O)C(=O)O)NC(=O)[C@H](CCC(N)=O)NC(=O)[C@H](C)NC(=O)[C@@H](NC(=O)[C@H](CCCCN)NC(=O)[C@H](CC(=O)O)NC(=O)[C@H](CC(C)C)NC(=O)C(C)(C)NC(=O)[C@@H](NC(=O)[C@H](CO)NC(=O)[C@H](Cc1ccc(O)cc1)NC(=O)[C@H](CC(=O)O)NC(=O)[C@H](CO)NC(=O)[C@@H](NC(=O)[C@H](Cc1ccccc1)NC(=O)[C@@H](NC(=O)CNC(=O)[C@H](CCC(=O)O)NC(=O)CCCNC(=O)C1(c2ccccc2)CNC(=O)C1)[C@@H](C)O)[C@@H](C)O)[C@@H](C)CC)[C@@H](C)CC)C(C)C)C(=O)N[C@@H](C)C(=O)NCC(=O)NCC(=O)N1CCC[C@H]1C(=O)N[C@@H](CO)C(=O)N[C@@H](CO)C(=O)NCC(=O)N[C@@H](C)C(=O)N1CCC[C@H]1C(=O)N1CCC[C@H]1C(=O)N1CCC[C@H]1C(=O)N[C@@H](CO)C(N)=O (some centres unmarked) [Compound 249] ({X27-GABA}-EGTFTSDYSI[Aib]LDKIAQK([AEEA-AEEA-γGlu-C20 diacid])AFVQWLIAGGPSSGAPPPS-NH2; C-terminus assumed) |  |  | 97 | 104 |
